Key:
KEAP1 C151 = target: T1, KEAP1 C151 (Homo sapiens, UniProt Q14145); experiment: Nrf2 TMT measurement: in vitro TE50 for KEAP1 C151 (IA-DTB competition, targeted TMT mass spectrometry) in MDA-MB-468 cell lysate; assay type: binding; details: in vitro target engagement of KEAP1 C151, targeted TMT, read-out: KEAP1_C151 TE50
T1 construct: treating 500 μg of cell lysate generated from MDA-MB-468 breast cancer cells with DMSO or compound; endogenous in cells; host or cells: MDA-MB-468 breast cancer cell lysate
T1 sequence (Q14145 whole entry): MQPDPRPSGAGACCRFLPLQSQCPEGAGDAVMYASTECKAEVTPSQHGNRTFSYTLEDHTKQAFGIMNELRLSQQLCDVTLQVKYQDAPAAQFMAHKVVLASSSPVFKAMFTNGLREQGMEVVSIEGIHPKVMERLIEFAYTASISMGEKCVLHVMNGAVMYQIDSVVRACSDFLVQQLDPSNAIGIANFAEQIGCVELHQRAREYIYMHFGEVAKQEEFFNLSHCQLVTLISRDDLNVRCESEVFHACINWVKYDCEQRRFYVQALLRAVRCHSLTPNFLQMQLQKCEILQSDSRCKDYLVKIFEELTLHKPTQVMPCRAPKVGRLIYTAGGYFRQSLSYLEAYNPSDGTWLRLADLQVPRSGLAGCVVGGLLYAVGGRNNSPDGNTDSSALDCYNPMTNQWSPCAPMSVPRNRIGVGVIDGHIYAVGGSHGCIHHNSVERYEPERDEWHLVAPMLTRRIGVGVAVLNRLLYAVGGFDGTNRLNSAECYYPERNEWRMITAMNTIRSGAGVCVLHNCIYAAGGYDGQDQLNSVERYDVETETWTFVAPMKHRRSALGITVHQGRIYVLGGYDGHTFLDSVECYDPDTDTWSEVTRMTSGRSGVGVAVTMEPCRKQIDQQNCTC
Protocol: In vitro TE50 values for KEAP_C151 were obtained by treating 500 μg of cell lysate generated from MDA-MB-468 breast cancer cells with DMSO or compound for 1 hour at room temperature followed by the addition of 200 μM IA-DTB (in DMSO) for one hour at room temperature. Samples were then precipitated by the addition of 8× ice cold acetonitrile and incubated at −80° C. for two hours. Protein was then pelleted by centrifugation (4,200 RPM, 45 min, 4° C.). The pelleted material was resuspended in 9M Urea, 50 mM ammonium bicarbonate and proteins were reduced and alkylated by the addition of DTT and iodoacetamide (10 and 30 mM, respectively). Following reduction and alkylation, samples were exchanged into 2M urea (Zeba spin desalting plates, Thermo Fisher) and digested with Trypsin. IA-DTB labeled peptides were isolated with streptavidin agarose resin. Enriched peptides were eluted by the addition of 50% acetonitrile (ACN) 0.1% Formic Acid (FA) and dried in a SpeedVac vacuum concentrator.
Dried peptides were resuspended in 0.2 M EPPS pH 8.5 and treated with 6.5 μL of 11-plex tandem mass tag (TMT) (8.3 μg/μL in dry ACN) for 2 hours at room temperature. Reactions were quenched by the addition of 6.5 μL of 5% Hydroxylamine. Samples were then combined and desalted on a Biotage Evolute express ABN plate (600-0010-PX01).
Targeted TMT. Targeted TMT measurements were collected using an Orbitrap LumosTribrid Mass Spectrometer (Thermo Scientific) coupled to an UltiMate 3000 Series Rapid Separation LC system and autosampler (Thermo Scientific Dionex). Peptides were eluted onto a custom C18 capillary analytical column (75-μm inner diameter fused silica, packed with Acclaim PepMap C18 resin (Thermo Scientific)) using an Acclaim PepMap 100 (Thermo 164535) loading column, and separated at a flow rate of 1.0 μl min−1. Data were acquired using a specific MS3-based TMT method targeting the peptide containing KEAP1 C151 (C(+324.2)[…], +3 charge state) where MS2 peptide fragmentation is triggered upon detection of the peptide precursor ion. Subsequent MS3 analysis was then performed using pre-selected peptide fragment ions that were isolated for fragmentation using synchronous precursor selection. RAW files were converted to MZXML format and searched with the SEQUEST algorithm using the MassPike software package. TMT quantitation was performed with a filter requiring at least ten summed signal-to-noise for control channels. Quantified signals were used for dose response curve-fitting and IC50 calculation using R's drc package.

Nrf2 = Nrf2 antagonism assay: ARE luciferase reporter in KYSE-70 cells; assay type: cell-based; details: positive Imax corresponds to Nrf2 antagonism; for Emax: Homo sapiens, KYSE-70, KYSE-70 cells, read-out: KYSE70 Cellular ARE Luciferase Imax (%); for KYSE70 Cellular ARE Luciferase Imax (%): KYSE-70 cells
From the text: NRF2 binds to a promoter region, antioxidant response element (ARE), to initiate expression of multiple genes. ARE luciferase reporter assays are used to test whether a ligand can activate or repress the expression of target genes using luciferase as a reporter gene.
KYSE-70 is an esophageal squamous cell carcinoma cell line with a Nrf2 mutation at amino acid position W24C. This mutation lowers the affinity between the E3 ligase that includes KEAP1 and Nrf2, resulting in a state in which the synthesis rate of new Nrf2 is faster than the E3's degradation rate of Nrf2, resulting in a “Nrf2 high” state. In KYSE-70 cells, genes are inserted directly after the ARE that trigger the expression of luciferase. Without a NRF2 antagonist in this modified KYSE70 cell line which has an inherently “NRF2 high state”, luciferase is expressed, and a signal is observed.
Nrf2 antagonists bind at C151 of KEAP1 and stabilize the E3 which results in an increased degradation rate of Nrf2. Increased degradation of Nrf2 results in less expression of luciferase, and therefore a less intense signal.
An IC50 is generated from the dose-response curve and an Imax. A positive Imax corresponds to Nrf2 antagonism. Imax >90% correlates with in vivo tumor grown inhibition. Compounds with Imax >50% were included in this description.

Row | SMILES | IC50 (KEAP1 C151) [µM] | Emax (Nrf2) [%] | KYSE70 Cellular ARE Luciferase Imax (%) (Nrf2)
1 | C=CC(=O)N1CCOCC1c1cc(Cl)cc(-c2cc(C)ncn2)c1 (single isomer, unassigned) [Compound 38, 1-(3-(3-chloro-5-(6-methylpyrimidin-4-yl)phenyl)morpholino)prop-2-en-1-one] | 0.027 | 89 | –
2 | C=CC(=O)N1CCN(C(C)=O)C[C@H]1c1cc(Cl)cc(-c2ncc(N)cn2)c1 (single isomer, unassigned) [Compound 188] | 0.018 | 86 | –
3 | C=C(C(=O)N1CCOC[C@H]1c1cc(Cl)cc(-c2ncnc(N)n2)c1)C(F)(F)F (single isomer, unassigned) [Compound 295] | 0.2 | 88 | –
4 | C=CC(=O)N1CCOC[C@H]1c1cc(Cl)cc(-c2cnc(N)c(F)n2)c1 [Compound 289, (R)-1-(3-(3-(5-amino-6-fluoropyrazin-2-yl)-5-chlorophenyl)morpholino)prop-2-en-1-one] | < 0.0064 | 95 | –
5 | C=CC(=O)N1CCS(=O)(=O)CC1c1cc(Cl)cc(-c2ccnc(C)n2)c1 (single isomer, unassigned) [Compound 51, 1-(3-(3-chloro-5-(2-methylpyrimidin-4-yl)phenyl)-1,1-dioxidothiomorpholino)prop-2-en-1-one] | 0.237 | – | 89
6 | C=CC(=O)N1CCOC[C@H]1c1cc(Cl)cc(-c2cc(N)[nH]n2)c1 (single isomer, unassigned) [Compound 235] | 0.11 | 86 | –
7 | C=CC(=O)N1CCOC[C@H]1c1cc(Cl)cc(-c2nccc(OC)n2)c1 (single isomer, unassigned) [Compound 88] | 0.014 | 85 | –
8 | C=CC(=O)N1CCCOCC1c1cc(Cl)cc(-c2ncnc(N)n2)c1 (racemic) [Compound 162, 1-(3-(3-(4-amino-1,3,5-triazin-2-yl)-5-chlorophenyl)-1,4-oxazepan-4-yl)prop-2-en-1-one] | 0.6 | 80 | –
9 | C=CC(=O)N1CC2(CC2)OCC1c1cc(Cl)nc(-c2cc(N)ncn2)c1 (single isomer, unassigned) [Compound 175, 1-(6-(2-(6-aminopyrimidin-4-yl)-6-chloropyridin-4-yl)-4-oxa-7-azaspiro[2.5]octan-7-yl)prop-2-en-1-one] | 0.032 | – | 92
10 | C=CC(=O)N1CC2(CC2)OCC1c1cc(Cl)nc(-c2ccn3ccnc3c2)c1 (single isomer, unassigned) [Compound 190, 1-(6-(2-chloro-6-(imidazo[1,2-a]pyridin-7-yl)pyridin-4-yl)-4-oxa-7-azaspiro[2,5]octan-7-yl)prop-2-en-1-one] | 0.0066 | 75 | –
11 | C=CC(=O)N1CC(C)(C)OC[C@H]1c1cc(Cl)cc(-c2ncc(F)cn2)c1 (single isomer, unassigned) [Compound 45] | 0.089 | 83 | –
12 | C=CC(=O)N1CCOC[C@H]1c1cc(Cl)cc(-c2ncc(N)cn2)c1 (single isomer, unassigned) [Compound 92] | 0.023 | 94 | –
13 | C=CC(=O)N1CCS(=O)(=O)CC1c1cc(Cl)cc(-c2nnn(C)n2)c1 (single isomer, unassigned) [Compound 32, 1-(3-(3-chloro-5-(2-methyl-2H-tetrazol-5-yl)phenyl)-1,1-dioxidothiomorpholino)prop-2-en-1-one] | 0.063 | 52 | –
14 | C=CC(=O)N1CCOC[C@H]1c1cc(Cl)cc(-c2nc(Cl)ncc2N)c1 (single isomer, unassigned) [Compound 268] | 0.49 | 53 | –
15 | C=CC(=O)N1C[C@@H](C)N(C(=O)C2CC2)C[C@@H]1c1cc(Cl)cc(-c2ncc(N)cn2)c1 (single isomer, unassigned) [Compound 243] | 0.022 | 88 | –
16 | C=CC(=O)N1CC(C)(C)OCC1c1cc(Cl)nc(-c2ccn3ccnc3c2)c1 (single isomer, unassigned) [Compound 78, 1-(5-(2-chloro-6-(imidazo[1,2-a]pyridin-7-yl)pyridin-4-yl)-2,2-dimethylmorpholino)prop-2-en-1-one] | 0.018 | 78 | –

Row | SMILES | IC50 (KEAP1 C151) [µM] | Emax (Nrf2) [%] | KYSE70 Cellular ARE Luciferase Imax (%) (Nrf2)
17 | C=CC(=O)N1CCOC[C@H]1c1cc(Cl)cc(-c2ccc(N)nn2)c1 (single isomer, unassigned) [Compound 128] | 0.12 | 70 | –
18 | C=CC(=O)N1CCOCC1c1cc(Cl)cc(-c2cnc3cncn3c2)c1 (single isomer, unassigned) [Compound 68, 1-(3-(3-chloro-5-(imidazo[1,5-a]pyrimidin-3-yl)phenyl)morpholino)prop-2-en-1-one] | 0.09 | 72 | –
19 | C=CC(=O)N1CCOC[C@H]1c1cc(Cl)cc(-c2ncc(F)cn2)c1 (single isomer, unassigned) [Compound 19] | 0.033 | 84 | –
20 | C=CC(=O)N1CCS(=O)(=O)CC1c1cc(Cl)cc(-c2ccn(C)c(=O)c2)c1 (racemic) [Compound 29, 4-(3-(4-acryloyl-1,1-dioxidothiomorpholin-3-yl)-5-chlorophenyl)-1-methylpyridin-2(1H)-one] | 0.33 | 62 | –
21 | C=CC(=O)N1CCN(C(C)=O)C[C@H]1c1cc(Cl)cc(-c2cc(N)ncn2)c1 (single isomer, unassigned) [Compound 187] | 0.12 | 71 | –
22 | C=CC(=O)N1CCOCC1c1cc(Cl)cc(-c2ccnc(N)n2)c1 (single isomer, unassigned) [Compound 40, 1-(3-(3-(2-aminopyrimidin-4-y1)-5-chlorophenyl)morpholino)prop-2-en-1-one] | 0.04 | 93 | –
23 | C=CC(=O)N1CCN(C(=O)C2CC2)C[C@H]1c1cc(Cl)cc(-c2cc(N)ncn2)c1 (single isomer, unassigned) [Compound 197] | – | 87 | –
24 | C=CC(=O)N1CCOC[C@H]1c1cc(Cl)cc(-n2cc(C)cn2)c1 (single isomer, unassigned) [Compound 118] | – | 63 | –
25 | C=CC(=O)N1CCN(C(=O)CC#N)C[C@H]1c1cc(Cl)cc(-c2ccnc(N)n2)c1 (single isomer, unassigned) [Compound 186] | – | 83 | –
26 | C=CC(=O)N1CCOC[C@H]1c1cc(Cl)cc(-c2ncnc(N)n2)c1 (single isomer, unassigned) [Compound 55] | – | 93 | –
27 | C=CC(=O)N1CCN(C(=O)C2CC2)C[C@H]1c1cc(Cl)cc(-c2ncc(N)cn2)c1 (single isomer, unassigned) [Compound 200] | – | 91 | –
28 | C=CC(=O)N1[C@H](C)COC[C@H]1c1cc(Cl)cc(-c2ncccn2)c1 (single isomer, unassigned) [Compound 20] | – | 67 | –
29 | C=CC(=O)N1CC2(CC2)OCC1c1cc(Cl)cc(-c2cc(N)ncn2)c1 (single isomer, unassigned) [Compound 140, 1-(6-(3-(6-aminopyrimidin-4-yl)-5-chlorophenyl)-4-oxa-7-azaspiro[2.5]octan-7-yl)prop-2-en-1-one] | – | 72 | –
30 | C=CC(=O)N1CCOCC1c1cc(Cl)nc(-c2ccnnc2)c1 (single isomer, unassigned) [Compound 30, 1-(3-(2-chloro-6-(pyridazin-4-yl)pyridin-4-yl)morpholino)prop-2-en-1-one] | – | 72 | –
31 | C=CC(=O)N1CCOC[C@H]1c1cc(Cl)cc(-c2cnnc(N)c2)c1 (single isomer, unassigned) [Compound 141] | – | 89 | –
